Source: the NIST ThermoML archive (doi:10.1016/j.jct.2011.07.018)

How the values were obtained:
[1] = 298.15 K; 101.33 kPa; Liquid; Vibrating tube method
[2] = excess molar enthalpy (molar enthalpy of mixing); xn = mol fraction of the nth substance listed; conditions: 298.15 K, 101 kPa, Liquid, isothermal titration calorimeter

CCCCCCCC(=O)O [octanoic acid]
Conditions	mass density [kg/m3]
[1]	906.02

CCCCCCCCO [octan-1-ol]
Conditions	mass density [kg/m3]
[1]	821.67

CCCCCC(=O)O [hexanoic acid] + C[S+](C)[O-]
[2]
Conditions	excess molar enthalpy [kcal/mol]
x2 = 0.042	-0.0478
x2 = 0.081	-0.0963
x2 = 0.117	-0.144
x2 = 0.15	-0.189
x2 = 0.181	-0.233
x2 = 0.209	-0.275
x2 = 0.241	-0.322
x2 = 0.271	-0.365
x2 = 0.298	-0.405
x2 = 0.323	-0.441
x2 = 0.346	-0.473
x2 = 0.369	-0.502
x2 = 0.38	-0.514
x2 = 0.388	-0.523
x2 = 0.397	-0.533
x2 = 0.406	-0.541
x2 = 0.415	-0.55
x2 = 0.425	-0.557
x2 = 0.436	-0.565
x2 = 0.447	-0.571
x2 = 0.457	-0.575
x2 = 0.467	-0.579
x2 = 0.477	-0.582
x2 = 0.488	-0.583
x2 = 0.498	-0.582
x2 = 0.508	-0.58
x2 = 0.519	-0.577
x2 = 0.53	-0.572
x2 = 0.541	-0.564
x2 = 0.553	-0.556
x2 = 0.563	-0.547
x2 = 0.574	-0.537
x2 = 0.585	-0.525
x2 = 0.596	-0.512
x2 = 0.608	-0.497
x2 = 0.62	-0.482
x2 = 0.631	-0.468
x2 = 0.642	-0.452
x2 = 0.653	-0.436
x2 = 0.665	-0.419
x2 = 0.677	-0.401
x2 = 0.69	-0.382
x2 = 0.701	-0.366
x2 = 0.712	-0.349
x2 = 0.724	-0.332
x2 = 0.736	-0.314
x2 = 0.748	-0.296
x2 = 0.761	-0.277
x2 = 0.772	-0.261
x2 = 0.784	-0.244
x2 = 0.796	-0.227
x2 = 0.808	-0.209
x2 = 0.821	-0.192
x2 = 0.834	-0.174
x2 = 0.846	-0.159
x2 = 0.858	-0.143
x2 = 0.87	-0.128
x2 = 0.883	-0.112
x2 = 0.896	-0.097
x2 = 0.91	-0.0844
x2 = 0.922	-0.0691
x2 = 0.934	-0.0564
x2 = 0.943	-0.0442
x2 = 0.959	-0.0323
x2 = 0.973	-0.0208
x2 = 0.986	-0.01

CCCCCCC(C)=O [2-octanone] + CCCCCCCCO
[2]
Conditions	excess molar enthalpy [kcal/mol]
x2 = 0.015	0.0217
x2 = 0.03	0.0425
x2 = 0.045	0.0619
x2 = 0.059	0.0793
x2 = 0.072	0.0961
x2 = 0.085	0.111
x2 = 0.098	0.126
x2 = 0.111	0.139
x2 = 0.124	0.152
x2 = 0.137	0.165
x2 = 0.15	0.177
x2 = 0.162	0.188
x2 = 0.174	0.197
x2 = 0.186	0.207
x2 = 0.197	0.215
x2 = 0.206	0.228
x2 = 0.212	0.233
x2 = 0.218	0.237
x2 = 0.225	0.241
x2 = 0.232	0.246
x2 = 0.24	0.251
x2 = 0.248	0.256
x2 = 0.256	0.261
x2 = 0.266	0.266
x2 = 0.276	0.272
x2 = 0.283	0.275
x2 = 0.291	0.279
x2 = 0.299	0.283
x2 = 0.308	0.286
x2 = 0.317	0.29
x2 = 0.327	0.294
x2 = 0.337	0.298
x2 = 0.348	0.301
x2 = 0.36	0.305
x2 = 0.373	0.308
x2 = 0.383	0.31
x2 = 0.393	0.313
x2 = 0.404	0.315
x2 = 0.415	0.316
x2 = 0.428	0.318
x2 = 0.44	0.32
x2 = 0.454	0.321
x2 = 0.469	0.322
x2 = 0.484	0.322
x2 = 0.496	0.321
x2 = 0.509	0.321
x2 = 0.523	0.32
x2 = 0.537	0.318
x2 = 0.552	0.316
x2 = 0.567	0.313
x2 = 0.587	0.31
x2 = 0.602	0.305
x2 = 0.62	0.3
x2 = 0.64	0.293
x2 = 0.657	0.288
x2 = 0.674	0.281
x2 = 0.692	0.273
x2 = 0.711	0.263
x2 = 0.731	0.252
x2 = 0.752	0.24
x2 = 0.775	0.226
x2 = 0.799	0.209
x2 = 0.82	0.194
x2 = 0.841	0.176
x2 = 0.864	0.156
x2 = 0.888	0.133
x2 = 0.914	0.107
x2 = 0.941	0.0762
x2 = 0.97	0.0411

CCCCCC(=O)O [hexanoic acid] + CCCCCCO
[2]
Conditions	excess molar enthalpy [kcal/mol]
x2 = 0.025	0.0232
x2 = 0.048	0.0423
x2 = 0.07	0.0586
x2 = 0.091	0.0722
x2 = 0.112	0.0841
x2 = 0.131	0.0942
x2 = 0.154	0.106
x2 = 0.176	0.115
x2 = 0.198	0.123
x2 = 0.218	0.129
x2 = 0.238	0.134
x2 = 0.256	0.139
x2 = 0.268	0.143
x2 = 0.277	0.145
x2 = 0.287	0.147
x2 = 0.298	0.149
x2 = 0.309	0.15
x2 = 0.321	0.152
x2 = 0.335	0.153
x2 = 0.349	0.155
x2 = 0.365	0.156
x2 = 0.377	0.156
x2 = 0.39	0.156
x2 = 0.404	0.156
x2 = 0.419	0.156
x2 = 0.435	0.156
x2 = 0.452	0.155
x2 = 0.47	0.153
x2 = 0.491	0.151
x2 = 0.506	0.149
x2 = 0.523	0.147
x2 = 0.54	0.144
x2 = 0.559	0.141
x2 = 0.579	0.137
x2 = 0.601	0.132
x2 = 0.624	0.127
x2 = 0.649	0.121
x2 = 0.669	0.115
x2 = 0.691	0.109
x2 = 0.714	0.103
x2 = 0.738	0.0956
x2 = 0.765	0.0872
x2 = 0.793	0.0784
x2 = 0.817	0.07
x2 = 0.843	0.0609
x2 = 0.87	0.0511
x2 = 0.899	0.0404
x2 = 0.931	0.0272
x2 = 0.964	0.0141
